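Five compound concentrations were applied to cells in 96-well plates for 48 hours; endpoints were derived by simple linear interpolation of the resulting dose-response curve. GI50: concentration for 50% inhibition of growth.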 Activity calls are given as the source filed them. No stated cut-off is given here; in the data, active = GI50 up to about 1.1 µM and inactive = higher.
Columns and labels:
Assay in all cases: inhibition of tumour cell growth, NCI panel, 48 h
[1] = test system: MDA-N
[2] = test system: HT-29
[3] = test system: HOP-62
[4] = test system: NCI/ADR-RES
[5] = test system: EKVX
[6] = test system: CAKI-1
[7] = test system: UACC-257
[8] = test system: KM12
[9] = test system: HCT-15
[10] = test system: Hs-578T
[11] = test system: ACHN
[12] = test system: COLO 205
[13] = test system: A549
[14] = test system: NCI-H226
[15] = test system: SF-539
[16] = test system: RXF 393
[17] = test system: HCC 2998
[18] = test system: IGROV-1
[19] = test system: Malme-3M

| Compound | GI50 [1] | GI50 [2] | GI50 [3] | GI50 [4] | GI50 [5] | GI50 [6] | GI50 [7] | GI50 [8] | GI50 [9] | GI50 [10] | GI50 [11] | GI50 [12] | GI50 [13] | GI50 [14] | GI50 [15] | GI50 [16] | GI50 [17] | GI50 [18] | GI50 [19] |
| --- | --- | --- | --- | --- | --- | --- | --- | --- | --- | --- | --- | --- | --- | --- | --- | --- | --- | --- | --- |
| Nc1nc(-c2ccccc2)nc2oc(-c3cccs3)nc12 | > 10 µM (inactive) | > 100 µM (inactive) | > 100 µM (inactive) | > 100 µM (inactive) | > 100 µM (inactive) | > 10 µM (inactive) | > 100 µM (inactive) | > 100 µM (inactive) | > 100 µM | > 100 µM (inactive) | > 100 µM (inactive) | > 100 µM (inactive) | > 100 µM (inactive) | > 100 µM (inactive) | > 100 µM (inactive) | > 100 µM (inactive) | > 100 µM (inactive) | > 100 µM (inactive) |  |
| ClC1(Cl)C2CCOC21n1cnc2ccccc21 (configuration not stated) | > 100 µM (inactive) | > 100 µM (inactive) | > 100 µM (inactive) | > 100 µM (inactive) | > 100 µM (inactive) | > 100 µM (inactive) |  | > 100 µM (inactive) | > 100 µM | > 100 µM (inactive) |  | > 100 µM (inactive) | > 100 µM (inactive) | > 100 µM (inactive) | > 100 µM (inactive) | > 100 µM (inactive) | > 100 µM (inactive) | > 100 µM (inactive) | > 100 µM (inactive) |
| S=c1sscc1N1CCSc2ssc(=S)c21 | > 100 µM (inactive) | > 100 µM (inactive) |  | 28.4 µM (inactive) | 16.6 µM (inactive) | > 100 µM (inactive) | > 100 µM (inactive) | > 100 µM (inactive) | 47.5 µM | 88.1 µM (inactive) | 30.5 µM (inactive) | > 100 µM (inactive) | 48.6 µM (inactive) | 67.8 µM (inactive) | 42.3 µM (inactive) | 47.3 µM (inactive) | > 100 µM (inactive) | 21.1 µM (inactive) | > 100 µM (inactive) |
| Cc1cc(-n2nnc(C(=O)O)c2-c2ccccc2)c2ccc(Cl)cc2n1 | > 100 µM (inactive) | > 100 µM (inactive) |  | > 100 µM (inactive) | > 100 µM (inactive) | > 100 µM (inactive) | > 100 µM (inactive) | > 100 µM (inactive) | > 100 µM | > 100 µM (inactive) | > 100 µM (inactive) | > 100 µM (inactive) | > 100 µM (inactive) | > 100 µM (inactive) | > 100 µM (inactive) | > 100 µM (inactive) | > 100 µM (inactive) | > 100 µM (inactive) | > 100 µM (inactive) |
| CC12CC(OC(=O)[C@]1(C)O)[C@@H]([C@]1(O)CC[C@H]3[C@@H]4C[C@H]5O[C@]56[C@@H](O)C=CC(=O)[C@]6(C)[C@H]4CC[C@@]31C)C2 (some centres not stated) | 7.21 µM (inactive) | 4.03 µM (inactive) | 28.9 µM (inactive) | 5.35 µM (inactive) | 2.84 µM (inactive) | 9.59 µM (inactive) | 7 µM (inactive) | 14.4 µM (inactive) | 7.33 µM | 6.71 µM (inactive) | 10.9 µM (inactive) | 3.39 µM (inactive) | 30.5 µM (inactive) | 40.7 µM (inactive) | 2.78 µM (inactive) | 3.01 µM (inactive) | 16.2 µM (inactive) | 17.3 µM (inactive) |  |
| CC1(C)CCCC(C)(C2CCC3(C)C2C(O)CC2C4(C)CCC(O)C(C)(C)C4CCC23C)O1 (configuration not stated) | > 100 µM (inactive) | 78.9 µM (inactive) |  | 55 µM (inactive) | > 100 µM (inactive) | 42.7 µM (inactive) | > 100 µM (inactive) | > 100 µM (inactive) | > 100 µM | 20.7 µM (inactive) | 56.9 µM (inactive) | 80.2 µM (inactive) | > 100 µM (inactive) | > 100 µM (inactive) | 42.9 µM (inactive) | 3.72 µM (inactive) | > 100 µM (inactive) | > 100 µM (inactive) | 98.6 µM (inactive) |
